The values that follow come from patent US20190282600A1, “COMBINATION THERAPIES TARGETING TERT DEPENDENCY FOR CANCER THERAPY” (The Wistar Institute of Anatomy and Biology, priority 2018, published 2019).

Structures are written as SMILES.

Data set [1] concerns NRAS mutant melanoma cells. Put plainly: Cell death by flow cytometry (PSVue or Annexin V/PI). The data set is classed as cell-based, Human. Here is the method: (§1) FIGS. 2a to 2c show NRAS^mut melanoma cells (FIG. 2a), BRAF-V600E/NRAS mutant cells derived from melanoma patients resistant to BRAF/MEK inhibitors (FIG. 2b), or non-transformed melanocytes and fibroblasts (FIG. 2c) were treated with 6-thio-dG for 7 days. Cell viability was measured by Alamar Blue assay and calculated relative to DMSO-treated cells. […] Cell death was assessed by PSVUe staining. Percent of apoptotic cells is shown. […] Mean TRF length expressed as kilobase pairs is indicated at the bottom. […] FIG. 2g provides a bar graph showing that DNA damage was assessed by γH2AX staining. Data represent average from three independent experiments ±SEM. *p<0.05; **p<0.01; ***p<0.005 in unpaired Student's t-test. As presented in FIG. 2h, mice bearing established WM3000 or M93-047 NRAS^mut tumors were treated with vehicle control or 6-thio-dG (2.5 mg/kg i.p; q.d). Tumor volume was measured and average tumor volume (n=4) ±SEM was plotted vs. time.
FIGS. 3a to 3g provides graphs showing that telomere dysfunction enhances oxidative stress leading to upregulation of an antioxidant program. […] Mitochondrial superoxide production was measured by MitoSox Red fluorescence (FIGS. 3c, and 3d) and expressed as fluorescence relative to vector or DMSO controls. […] FIG. 3f provides a bar graph showing that SOD2 was silenced using shRNA. Transduced M93-047 cells were treated with DMSO or 1 μM of 6-thio-dG and cell death was assessed by Annexin V/PI straining. As presented in FIG. 3g, M93-047 cells were transduced with a SOD2 lentiviral construct or empty vector control (pLX304). Transduced cells were treated with increasing doses (1, 2.5 and 5 μM) of 6-thio-dG for 7 days and cell death was assessed. Data represent average from three independent experiments ±SEM. *p<0.05; **p<0.01; ***p<0.005 in unpaired Student's t-test.
FIGS. 4a to 4e provides bar graphs showing that induction of telomere and mitochondrial dysfunction triggers cell death in NRAS mutant melanoma. […] Cell death was assessed by Annexin V and PI staining. […] Cells were stained with Annexin V and PI and percent cell death was determined by flow cytometry. […] P values were calculated using unpaired Student's t-test; * p<0.05; *** p<0.005.
As presented in FIG. 16a, SOD2 was silenced using shRNA. Transduced WM3000 cells were treated with DMSO or 1 μM of 6-thio-dG and cell death was assessed by Annexin V/PI straining. […] Transduced cells were treated with increasing doses (1, 2.5 and 5 μM) of 6-thio-dG for 10 days and cell death was assessed. […]
In FIG. 17a, NRAS^mut melanoma cells were treated with 6-thio-dG (1 μM) for 7 days total. […] Percent cell death was determined by flow cytometry following staining of cells with Annexin V and Propidium iodide. […]
For orientation: In flow cytometry, cells or beads pass a laser one at a time.

The test system of data set [2] is NRAS mutant melanoma cells. Put plainly: Global DNA damage, γH2AX staining by flow cytometry. The data set is classed as cell-based, Human. Conditions: 1 μM 6-thio-dG for 7 days. Here is the method:
as §1
For assessment of global DNA damage cells were fixed and permeabilized with BD CytoFix/Perm reagent following the manufacturer's instructions and incubated with γH2AX antibody (Cell Signaling Technology, Danvers, Mass.) for 1 h at room temperature followed by 1 h incubation with Alexa-647 anti-Rabbit secondary antibody. Mean fluorescence staining was quantified by flow cytometry. […]

Data set [3] has as its system NRAS-WT/BRAF-WT melanoma cells. Put plainly: Cell death by Annexin V/PI flow cytometry. The following applies: 1 μM 6-thio-dG, 5 μM Gam, single agents or in combination. The data set is classed as cell-based, Human. Here is the method:
FIGS. 5a to 5e provide bar graphs showing that combination treatment with 6-Thio-dG and Gamitrinib (Gam) triggers death selectively in NRAS mutant tumor cells. NRAS-WT/BRAF-WT melanoma cells (FIG. 5a), NRAS-WT/BRAF-mut melanoma cells (FIG. 5b), NRAS mutant neuroblastoma cells (FIG. 5c), NRAS-WT/KRAS-mutant colon cancer cells (FIG. 5d), and NRAS-WT/KRAS-mutant lung cancer cells were treated with 1 μM 6-thio-dG for 5 days (FIG. 5e). At day 5, culture medium was replaced and cells treated with 1 μM 6-thio-dG plus 5 μM Gam for two more days. Cells were stained with Annexin V and PI and percent cell death was determined by FACS. Data represent average of three independent experiments +/−SEM; p values were calculated using un-paired Student's t-test; *p<0.05; **p<0.001.
Cells were seeded in 96-well plates and treated with drugs. After 6 days, cell viability was assessed following 6h incubation with […] Alamar Blue (ThermoFisherScientific, Philadelphia, Pa.) by measuring fluorescence using an EnVision Xcite Multilabel plate reader (Perkin Elmer, Waltham, Mass.). Cell death was determined by flow cytometry using PSVue-643 (Molecular Targeting Technologies) or Annexin V (640919, Biolegend, San Diego, Calif.) and Propidium Iodide (Sigma) staining. Samples were analyzed using a BD LSRII flow cytometer (BD Biosciences, San Jose, Calif.).

For data set [4] the following is noted: mice; cited from earlier work.

As for `Nc1nc2c(ncn2[C@H]2C[C@H](O)[C@@H](CO)O2)c(=S)[nH]1` [6-thio-dG, 6-thio-2′-deoxyguanosine], in data set [1] (1 or 5 μM 6-thio-dG for 7 or 14 days), the “cell death (PSVue staining)” value is recorded as “led to cell death after 7-14 days”. In addition, in data set [1] (SOD2 overexpression, 1, 2.5 and 5 μM 6-thio-dG for 7 or 10 days, M93-047, WM3000), the “apoptosis / cell death” value was “attenuated the apoptosis-inducing effects”. The “apoptosis / cell death (Annexin V/PI)” value in data set [1] (SOD2 silenced by shRNA, 1 μM 6-thio-dG, M93-047, WM3000) is “enhanced the ability of 6-Thio-dG to induce apoptosis”. Besides, the γH2AX result in data set [2] is “increased levels”. Further, in data set [3], the cell death result was “did not induce cell death”. In addition, in data set [4], the “effect on alanine aminotransferase (ALT)” value is listed as “no significant effects”, the “effect on aspartate aminotransferase (AST)” value is recorded as “no significant effects”, the “effect on creatinine levels” value was “no significant effects” and the “effect on red blood cells” value is given as “no significant effects”. The “effect on white blood cells” value in data set [4] is recorded as “no significant effects”.
